Test results from ChEMBL document CHEMBL4665691, “Callicarpins, Two Classes of Rearranged ent-Clerodane Diterpenoids from Callicarpa Plants Blocking NLRP3 Inflammasome-Induced Pyroptosis” (J Nat Prod, 2020).

What follows are compounds tested on J774.A1 (assay: Cytotoxicity against mouse J774.A1 cells by LDH release assay). Conditions: Mus musculus, J774.A1.
Assay type: functional, cell-based

SMILES | IC50 [µM]
C[C@@H]1CC[C@]2(C)[C@H](CC(=O)[C@H]2C)[C@@]1(C)C[C@H](O)C1=CC(=O)OC1O (some centres not stated) | 1.4
CC1=CCC[C@@H]2[C@@](C)(C[C@H](O)C3=CC(=O)OC3O)[C@H](C)CC[C@@]12C (some centres not stated) | 3.6
CC(=O)O[C@@H]1CC[C@@H]2[C@@](C)(C[C@H](O)C3=CC(=O)O[C@@H]3OC(C)=O)[C@H](C)CC[C@@]2(C)C(=O)C1 | 5.3
COC(=O)[C@H]1C[C@@H]2[C@@](C)(C[C@H](O)C3=CC(=O)OC3O)[C@H](C)CC[C@@]2(C)[C@@]1(C)O (some centres not stated) | 1.5
C[C@@H]1CC[C@]2(C)[C@H](C[C@H](C(=O)O)[C@]2(C)O)[C@@]1(C)C[C@H](O)C1=CC(=O)OC1O (some centres not stated) | 24.7
C[C@@H]1CC[C@@]2(C)C(=O)C[C@H](O)CC[C@@H]2[C@@]1(C)C[C@H](O)C1=CC(=O)OC1O (mixture of isomers) | 25.4

Same assay, conditions: j774.a1

SMILES | IC50 [µM]
C[C@@H]1CC[C@@]2(C)C(=O)C[C@@H](O)CC[C@@H]2[C@@]1(C)C[C@H](O)C1=CC(=O)OC1O (stereo in doubt; 1) | 16.6
